Data as given in patent publication US4684650A, “Antihypertensive fluorophenylindanyl imidazolidinoneethylpiperazines” (priority 1984, dated 1987).
Where two headings read alike, the source gives them in different places.

What was measured:
[1] = system: 1-5-HTP-induced head shakes; assay: 1-5-HTP-induced head shakes; type: in vivo; details: rats, 1-5-HTP 75 mg/kg i.p. after citalopram; for ED50: Rattus norvegicus, sc, read-out: 1-5-HTP-antg. ED50; for 1-5-HTP-antg. ED50: s.c.
Method: The rats were pretreated subcutaneously with test compound or saline simultaneously with or 90 min before injection of citalopram (10 mg/kg s.c.).
Each group consisted of 4-12 rats.

[2] = system: methylphenidate induced stereotypies; assay: Methylphenidate Antagonism; type: in vivo, mice; details: for ED50: Mus musculus, ip, read-out: MePh antg. ED50, i.p., mice, 2 hours before methylphenidate 60 mg/kg s.c.
Method: The experiments were made as described by Pedersen and Christensen (1972) Acta Pharmacol. et Toxicol. 31, 488-496.--Briefly, test compounds or saline were injected i.p. 2 hours before methylphenidate, 60 mg/kg s.c. 3 pairs of mice were used for each dose level. After methylphenidate injection the mice were placed in observation cages for one hour. The cages were placed on corrugated paper, the corrugation facing upwards.

[3] = system: spontaneous hypertensive rats (SHR); assay: Antihypertensive effect in spontaneous hypertensive rats (SHR); type: in vivo; details: for change in vivo at 5 mg/kg / ED10: Rattus norvegicus, ip; for change in vivo at 5 mg/kg: 1 h; for Antihypertensive eff. SHR, max eff. in % of 5 mg/kg ip, DAP: diastolic pressure (DAP); for Antihypertensive eff. SHR, max eff. in % of 5 mg/kg ip, DAP / Antihypertensive eff. SHR, max eff. in % of 5 mg/kg ip, SAP: max change within one hour; for Antihypertensive eff. SHR, max eff. in % of 5 mg/kg ip, SAP: systolic pressure (SAP)
Method: Antihypertensive effect in spontaneous hypertensive rats (SHR)
The femoral artery of male SHR is cannulated in anaestesia for blood pressure recordings. After a stabilization period of 11/2 h after discontinuation of the anaesthesia initial blood pressure curves are recorded and the systolic (SAP)/diastolic (DAP) pressure determined (-20, -10, 0, min. p.i.) Test substance is injected i.p. and the pressure curve recorded for one hour. The change in SAP/DAP is calculated in percent at mean initial values at different times (10, 20, 30, 40, 50 and 60 minutes after injection). At least two SHR are used per dose level. The maximum change is used for estimation of the drug effect.

[4] = system: phenylephrine pressor responses; assay: Antagonism to phenylephrine pressor responses in pithed rats; type: in vivo; details: for ED50: Rattus norvegicus, iv, read-out: Effects on pressor response of Phenylephrine, ED50; for Phenylephr. antg./5-HT antg. (ratio): pithed rats, ratio of phenylephrine ED50 to 5-HT ED50
Method: (§1) The rat is anaesthetized with ether, tracheotomized, artificial respired and pithed. The knitting-needle is introduced through the right orbita into the cranial cavity and passed through foramen magnum into the spinal canal as far as possible. The spinal cord is destroyed by turning the needle. After vagotomi both carotides are ligated and a catheter placed in the right one for pressure recording. The rat is adrenalectomized. […] The initial and post medication mean pressor effect is calculated, and the mean pressor effect is calculated as % of the initial value. Two to five preparations are employed for each dose level. The ED50 is determined.

[5] = target: T1, 5-HT2 receptors (Rattus norvegicus, UniProt P14842); assay: 3H-spiroperidol binding to 5-HT2 receptors; details: rat whole cortex, 0.5 nM 3H-spiroperidol, 0.3 μM sulpiride; read-out: 3H-SPI binding 5-HT2 IC50
T1 construct: Rat whole cortex was homogenized by an Ultra Turrax homogenizer; from tissue; host or cells: rat whole cerebral cortex, crude washed membranes
T1 sequence (P14842 whole entry): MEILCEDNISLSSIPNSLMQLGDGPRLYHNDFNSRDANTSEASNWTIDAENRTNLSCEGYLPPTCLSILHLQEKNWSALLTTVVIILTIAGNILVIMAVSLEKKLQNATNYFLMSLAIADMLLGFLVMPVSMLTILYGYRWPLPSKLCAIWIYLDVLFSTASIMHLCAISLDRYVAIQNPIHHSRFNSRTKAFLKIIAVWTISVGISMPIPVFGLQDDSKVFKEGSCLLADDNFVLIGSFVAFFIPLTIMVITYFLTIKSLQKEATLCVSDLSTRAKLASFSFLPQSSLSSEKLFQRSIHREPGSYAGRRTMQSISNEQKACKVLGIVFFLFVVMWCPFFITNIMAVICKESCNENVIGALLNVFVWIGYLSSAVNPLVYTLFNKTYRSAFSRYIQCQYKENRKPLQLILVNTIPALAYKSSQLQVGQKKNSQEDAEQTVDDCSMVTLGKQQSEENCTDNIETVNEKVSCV
Method: ^3 H-spiroperidol binding to 5-HT2 receptors.
Rat whole cortex was homogenized by an Ultra Turrax homogenizer in 100 vol. of 50 mM Tris buffer pH 7.7. The homogenate was centrifuged at 20,000 g for 10 minutes at 4° C. The pellet was rehomogenized in another volume of buffer and centrifuged as mentioned above. The final pellet was rehomogenized in 50 mM Tris buffer pH 7.7 containing 120 mM NaCl, 5 mM KCl, 2 mM CaCl2 and 1 mM MgCl2 (ion mix) in a volume corresponding to 12.5 mg original tissue per ml.
Test drugs were dissolved in water; ^3 H-spiroperidol (NEN, 28-30 Ci/mmol) was diluted in 3 μM sulpiride, and 800 μl membrane suspension were added. Final concentration of ligand and sulpiride were 0.5 nM and 0.3 μM, respectively. The samples were incubated at 37° C. for 10 min. The samples were then filtered under vacuum through Whatman GF/B glass-fiber filters. The tubes were then rinsed with 5 ml incubation buffer, which was poured on the filters. The filters were finally washed twice with 5 ml buffer and placed in counting vials. After addition of 5 ml scintillation fluid (Lumagel) radioactivity was estimated by liquid scintillation counting. Non-specific binding was obtained by adding Mianserin (1 μM) to separate samples. Each drug was tested at least twice at 5 concentrations in triplicate. IC50-values were determined from log concentration-response curves.--The presence of sulpiride excluded binding to dopamine D-2 receptors.

[6] = system: 5-HT pressor responses; assay: Antagonism to 5-HT pressor responses in pithed rats; type: in vivo; details: for change in vivo at 0.02 mg/kg / ED50: Rattus norvegicus, iv; for change in vivo at 0.02 mg/kg: read-out: Effects on pressor response of 5-HT, % eff. of 0.02 mg/kg, pithed rats, 0.02 mg/kg, jugular vein; for ED50: read-out: Effects on pressor response of 5-HT, ED50, pithed rats, jugular vein; for Effects on pressor response of 5-HT, % eff. of 0.02 mg/kg: pithed rats, jugular vein
Method: as §1

[7] = read-out: Antihypertensive eff. SHR, max eff. in % of 5 mg/kg ip, DAP, 5 mg/kg ip, diastolic pressure (DAP), max change within one hour
[8] = read-out: Antihypertensive eff. SHR, max eff. in % of 5 mg/kg ip, SAP, 5 mg/kg ip, systolic pressure (SAP), max change within one hour
[9] = read-out: Antihypertensive eff. SHR, ED10 DAP
[10] = read-out: Antihypertensive eff. SHR, ED10 SAP

Row | Compound | ED50 [1] [µmol/kg] | ED50 [2] [µmol/kg] | change in vivo at 5 mg/kg [3, 7] [%] | change in vivo at 5 mg/kg [3, 8] [%] | ED10 [3, 9] [µmol/kg] | ED10 [3, 10] [µmol/kg] | ED50 [4] [µmol/kg] | Phenylephr. antg./5-HT antg. (ratio) [4] | IC50 [5] [nM] | change in vivo at 0.02 mg/kg [6] [%] | ED50 [6] [µmol/kg] | 1-5-HTP-antg. ED50 [1] [µmol/kg] | Antihypertensive eff. SHR, max eff. in % of 5 mg/kg ip, DAP [3] [%] | Antihypertensive eff. SHR, max eff. in % of 5 mg/kg ip, SAP [3] [%] | peripheral or central action ([3]; in words) | Effects on pressor response of 5-HT, % eff. of 0.02 mg/kg [6] [%] | MePh antg. ED50 ([2]; i.p., mice, 2 hours before methylphenidate 60 mg/kg s.c.) [µmol/kg] | Antihypertensive eff. SHR, max eff. in % of 5 mg/kg ip, SAP/DAP (inactive) [3]
1 | Cc1ccc2c(c1)[C@H](N1CCN(CCN3CCOC3=O)CC1)C[C@H]2c1ccc(F)cc1 (relative stereo) [compound 9] | 0.45 | 29 | -41 | -32 | 3.5 | 4.5 | 1.51 | 76 | 21 | -73 | 0.02 |  |  |  |  |  |  | 
2 | Fc1ccc([C@@H]2C[C@@H](N3CCN(CCN4CCNC4=S)CC3)c3cc(F)ccc32)cc1 (relative stereo) [compound 24, Trans-1-[3-(4-fluorophenyl)-6-fluoroindan-1-yl]-4-[2-(2-imidazolidinthion-1-yl)ethyl]piperazine] | 0.13 | 25 | -20 | -10 |  |  | 3.7 | 370 | 5.2 | -88 | 0.01 |  |  |  |  |  |  | 
3 | O=C1NCCN1CCN1CCN([C@@H]2C[C@@H](c3ccc(F)cc3)c3ccccc32)CC1 (single isomer, unassigned) [+1, (+)trans-1-[3-(4-fluorophenyl]indan-1-yl]-4-[2-(2-imidazolidinon-1-yl)ethyl]piperazine] |  | > 97 |  |  | 1.2 | 1.7 | 3.21 | 357 | 6 |  | 0.009 | 1.5 | -47 | -33 | mainly possess periferal action | -81 |  | 
4 | O=C1NCCN1CCN1CCN([C@@H]2C[C@@H](c3ccc(F)cc3)c3ccccc32)CC1 (relative stereo) [compound 1] | 1.3 | > 98 | -43 | -33 | 4.2 | 5.9 | 3.13 |  | 25 | -68 | 0.024 |  |  |  |  |  |  | 
5 | O=c1[nH]c2ccccc2n1CCN1CCN([C@@H]2C[C@@H](c3ccc(F)cc3)c3ccc(F)cc32)CC1 (relative stereo) [compound 16] | 0.28 | > 72 | -11 | -15 |  |  |  |  | 9.7 | -52 |  |  |  |  |  |  |  | 
6 | CN1CCN(CCN2CCN([C@@H]3C[C@@H](c4ccc(F)cc4)c4ccc(F)cc43)CC2)C1=O (single isomer, unassigned) [-3] |  |  |  |  |  |  |  |  | 410 |  |  | 45 |  |  |  | -6 | > 91 | I
7 | O=C1CCCN1CCN1CCN([C@@H]2C[C@@H](c3ccc(F)cc3)c3ccc(F)cc32)CC1 (relative stereo) [compound 18] | 0.76 | 18 |  |  |  |  |  |  | 12 | -67 |  |  |  |  |  |  |  | I
8 | Fc1ccc([C@@H]2C[C@@H](N3CCN(CCN4CCNC4=S)CC3)c3ccccc32)cc1 (relative stereo) [compound 27, Trans-1-[3-(4-fluorophenyl)-indan-1-yl]-4-[2-(imidazolidin-2-thion-1-yl)ethyl]piperazine] | 0.48 | > 61 | -29 | -18 |  |  |  |  | 4.7 | -71 |  |  |  |  |  |  |  | 
9 | Fc1ccc([C@@H]2C[C@@H](N3CCN(CCN4CCNC4=S)CC3)c3cc(F)ccc32)cc1 (single isomer, unassigned) [+24] | 0.03 | 17 | -40 | -32 |  |  |  |  | 2.5 | -88 |  |  |  |  |  |  |  | 
10 | CN1CCN(CCN2CCN([C@@H]3C[C@@H](c4ccc(F)cc4)c4ccccc43)CC2)C1=O (relative stereo) [compound 11] | 1.4 | > 80 | -8 | -6 |  |  |  |  | 13 | -81 |  |  |  |  |  |  |  | 
11 | O=C1NCCCN1CCN1CCN([C@@H]2C[C@@H](c3ccc(F)cc3)c3ccc(F)cc32)CC1 (relative stereo) [compound 25] | 1.2 | > 59 |  |  |  |  |  |  | 12 | -60 |  |  |  |  |  |  |  | I
12 | CN1CCC(CCN2CCN([C@H]3C[C@H](c4ccc(F)cc4)c4ccccc43)CC2)C1=O (relative stereo) [compound 23] | 1.4 | > 61 |  |  |  |  |  |  | 16 |  |  |  | -43 | -31 |  | -38 |  | 
